Data as given in ChEMBL document CHEMBL3885881, “DrugMatrix”.

Organism: Rattus norvegicus
Experiment: DrugMatrix - Regimen: Daily Repeat
Type: toxicity, organism-based, Sprague-Dawley
Parameters: regimen Daily Repeat, gender Male, age 6-8 weeks
Details: in vivo, po, route oral GAVAGE, vehicle .5 % CMC; for ABSOLUTE BASOPHIL / ABSOLUTE EOSINOPHIL / ABSOLUTE LYMPHOCYTE / ABSOLUTE MONOCYTE / ABSOLUTE SEGMENTED NEUTROPHIL / BASOPHIL / EOSINOPHIL / ERYTHROCYTE COUNT / HEMATOCRIT / HEMOGLOBIN / LEUKOCYTE COUNT / LYMPHOCYTE / MEAN CORPUSCULAR HEMOGLOBIN / MEAN CORPUSCULAR HEMOGLOBIN CONCENTRATION / MEAN CORPUSCULAR VOLUME / MONOCYTE / NEUTROPHIL / NUCLEATED RED BLOOD CELLS / PLATELET COUNT: tissue Blood; for ALANINE AMINOTRANSFERASE / ALBUMIN / ALKALINE PHOSPHATASE / ASPARTATE AMINOTRANSFERASE / BLOOD UREA NITROGEN / CARBON DIOXIDE / CHLORIDE / CHOLESTEROL / CREATINE PHOSPHOKINASE / CREATININE / GLUCOSE / LACTATE DEHYDROGENASE / LIPASE / PHOSPHORUS / POTASSIUM / SODIUM / TOTAL BILIRUBIN / TOTAL PROTEIN / URIC ACID: tissue Plasma
[1] = 0 mg/kg, 72 h, dose level Control, time 3 day
[2] = 0 mg/kg, 120 h, dose level Control, time 5 day
[3] = 3 mg/kg, 72 h, dose level Low, time 3 day

## CC(=O)Nc1ccc2c(c1)Cc1ccccc1-2 [2-ACETYLAMINOFLUORENE]
[1]
  ABSOLUTE BASOPHIL: 0 CELLS/uL
  ABSOLUTE EOSINOPHIL: 171.33 CELLS/uL
  ABSOLUTE LYMPHOCYTE: 13776.5 CELLS/uL
  ABSOLUTE MONOCYTE: 180.83 CELLS/uL
  ABSOLUTE SEGMENTED NEUTROPHIL: 1121.33 CELLS/uL
  BASOPHIL: 0%
  EOSINOPHIL: 1%
  ERYTHROCYTE COUNT: 5.56 x10E6/uL
  HEMATOCRIT: 34.75%
  HEMOGLOBIN: 13.68 G/DL
  LEUKOCYTE COUNT: 15.25 x10E3/uL
  LYMPHOCYTE: 90.17%
  MEAN CORPUSCULAR HEMOGLOBIN: 24.6 pg
  MEAN CORPUSCULAR HEMOGLOBIN CONCENTRATION: 39.4 G/DL
  MEAN CORPUSCULAR VOLUME: 62.48 fL
  MONOCYTE: 1.17%
  NEUTROPHIL: 7.67%
  NUCLEATED RED BLOOD CELLS: 0 /100WBC
  PLATELET COUNT: 1342 x10E3/uL
  ALANINE AMINOTRANSFERASE: 49.67 u/L
  ALBUMIN: 4.15 G/DL
  ALKALINE PHOSPHATASE: 346.83 u/L
  ASPARTATE AMINOTRANSFERASE: 108.17 u/L
  BLOOD UREA NITROGEN: 17.33 mg/dL
  CARBON DIOXIDE: 25 mmol/L
  CHLORIDE: 100.83 MEQ/L
  CHOLESTEROL: 66.83 mg/dL
  CREATINE PHOSPHOKINASE: 788 u/L
  CREATININE: 0.18 mg/dL
  GLUCOSE: 151.67 mg/dL
  LACTATE DEHYDROGENASE: 982.5 u/L
  LIPASE: 10.33 u/L
  PHOSPHORUS: 11.23 mg/dL
  POTASSIUM: 6.37 MEQ/L
  SODIUM: 141.02 MEQ/L
  TOTAL BILIRUBIN: 0.18 mg/dL
  TOTAL PROTEIN: 5.9 G/DL
  URIC ACID: 1.8 mg/dL
[2]
  ABSOLUTE BASOPHIL: 0 CELLS/uL
  ABSOLUTE EOSINOPHIL: 69 CELLS/uL
  ABSOLUTE LYMPHOCYTE: 13632.83 CELLS/uL
  ABSOLUTE MONOCYTE: 139.83 CELLS/uL
  ABSOLUTE SEGMENTED NEUTROPHIL: 1225 CELLS/uL
  BASOPHIL: 0%
  EOSINOPHIL: 0.33%
  ERYTHROCYTE COUNT: 5.52 x10E6/uL
  HEMATOCRIT: 33.98%
  HEMOGLOBIN: 13.22 G/DL
  LEUKOCYTE COUNT: 15.07 x10E3/uL
  LYMPHOCYTE: 90.83%
  MEAN CORPUSCULAR HEMOGLOBIN: 23.95 pg
  MEAN CORPUSCULAR HEMOGLOBIN CONCENTRATION: 38.9 G/DL
  MEAN CORPUSCULAR VOLUME: 61.53 fL
  MONOCYTE: 0.83%
  NEUTROPHIL: 8%
  NUCLEATED RED BLOOD CELLS: 0 /100WBC
  PLATELET COUNT: 1196 x10E3/uL
  ALANINE AMINOTRANSFERASE: 49.17 u/L
  ALBUMIN: 4.2 G/DL
  ALKALINE PHOSPHATASE: 352.33 u/L
  ASPARTATE AMINOTRANSFERASE: 89.67 u/L
  BLOOD UREA NITROGEN: 18 mg/dL
  CARBON DIOXIDE: 27.67 mmol/L
  CHLORIDE: 101 MEQ/L
  CHOLESTEROL: 72.83 mg/dL
  CREATINE PHOSPHOKINASE: 417.5 u/L
  CREATININE: 0.18 mg/dL
  GLUCOSE: 150.5 mg/dL
  LACTATE DEHYDROGENASE: 517.33 u/L
  LIPASE: 9 u/L
  PHOSPHORUS: 11.87 mg/dL
  POTASSIUM: 6.57 MEQ/L
  SODIUM: 143.62 MEQ/L
  TOTAL BILIRUBIN: 0.2 mg/dL
  TOTAL PROTEIN: 6.08 G/DL
  URIC ACID: 1.45 mg/dL
[3]
  ABSOLUTE BASOPHIL: 0 CELLS/uL
  ABSOLUTE EOSINOPHIL: 75.33 CELLS/uL
  ABSOLUTE LYMPHOCYTE: 11859.67 CELLS/uL
  ABSOLUTE MONOCYTE: 186.67 CELLS/uL
  ABSOLUTE SEGMENTED NEUTROPHIL: 911.67 CELLS/uL
  BASOPHIL: 0%
  EOSINOPHIL: 0.67%
  ERYTHROCYTE COUNT: 5.43 x10E6/uL
  HEMATOCRIT: 34.07%
  HEMOGLOBIN: 13.33 G/DL
  LEUKOCYTE COUNT: 13.03 x10E3/uL
  LYMPHOCYTE: 91%
  MEAN CORPUSCULAR HEMOGLOBIN: 24.57 pg
  MEAN CORPUSCULAR HEMOGLOBIN CONCENTRATION: 39.2 G/DL
  MEAN CORPUSCULAR VOLUME: 62.73 fL
  MONOCYTE: 1.33%
  NEUTROPHIL: 7%
  NUCLEATED RED BLOOD CELLS: 0 /100WBC
  PLATELET COUNT: 1354.67 x10E3/uL
  ALANINE AMINOTRANSFERASE: 43.33 u/L
  ALBUMIN: 4.2 G/DL
  ALKALINE PHOSPHATASE: 360.33 u/L
  ASPARTATE AMINOTRANSFERASE: 88.67 u/L
  BLOOD UREA NITROGEN: 18.33 mg/dL
  CARBON DIOXIDE: 26.33 mmol/L
  CHLORIDE: 100.67 MEQ/L
  CHOLESTEROL: 65 mg/dL
  CREATINE PHOSPHOKINASE: 452 u/L
  CREATININE: 0.23 mg/dL
  GLUCOSE: 148.33 mg/dL
  LACTATE DEHYDROGENASE: 641.33 u/L
  LIPASE: 10.33 u/L
  PHOSPHORUS: 11.33 mg/dL
  POTASSIUM: 6.45 MEQ/L
  SODIUM: 141.2 MEQ/L
  TOTAL BILIRUBIN: 0.23 mg/dL
  TOTAL PROTEIN: 5.9 G/DL
  URIC ACID: 1.6 mg/dL
